Assay results as given in patent publication EP3800188A1, “SUBSTITUTED PYRAZOLOPYRIMIDINES AS IRAK4 INHIBITORS” (Bayer AG, priority 2019, dated 2021).

Key:
[1] = Metabolic stability in human liver microsomes; conditions: 1 µM compound; for CLblood, human microsomes: hepatic in vivo blood clearance calculated with well stirred liver model, '(stable)' given beside < 0.01; for Fmax, human microsomes: maximal oral bioavailability calculated with well stirred liver model, 0.5 mg/mL protein, '(stable)' given beside 100
[2] = target: T1, human IRAK4 (Homo sapiens, UniProt Q9NWZ3); assay: Human IRAK4 kinase activity inhibition assay (IRAK4 TR-FRET assay); assay type: biochemical; conditions: 1 mM ATP, GST-human IRAK4, average or median values
T1 construct: GST (N); made in house; host or cells: baculovirus-infected Hi5 (BTI-TN-5B1-4) insect cells
T1 sequence (Q9NWZ3 1-460): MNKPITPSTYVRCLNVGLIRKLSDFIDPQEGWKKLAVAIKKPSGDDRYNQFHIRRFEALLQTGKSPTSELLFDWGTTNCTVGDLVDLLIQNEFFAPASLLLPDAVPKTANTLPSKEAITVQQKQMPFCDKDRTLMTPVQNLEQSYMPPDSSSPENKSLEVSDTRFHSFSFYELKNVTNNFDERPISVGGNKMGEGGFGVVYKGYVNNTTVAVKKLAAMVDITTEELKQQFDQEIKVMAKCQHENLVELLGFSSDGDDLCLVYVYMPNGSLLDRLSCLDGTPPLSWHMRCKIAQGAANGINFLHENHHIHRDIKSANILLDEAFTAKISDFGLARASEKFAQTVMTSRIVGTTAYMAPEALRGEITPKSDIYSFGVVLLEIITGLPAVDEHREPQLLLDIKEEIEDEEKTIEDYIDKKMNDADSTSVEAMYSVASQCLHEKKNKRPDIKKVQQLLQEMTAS
Summary of the method: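 Signal was the 665/620 nm emission ratio from a europium anti-mouse-IgG, anti-phosphoserine antibody and streptavidin-XL665 complex formed over 1 h at 22°C. It was scaled between no-enzyme (100%) and no-compound (0%) wells. Beforehand, compounds (20 µM down to 0.073 nM, 11 points) sat 15 min with roughly 0.2 nM insect-cell-expressed GST-human IRAK4 before phosphorylation of a biotinylated peptide substrate.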

SMILES	CLblood, human microsomes [1]	Fmax, human microsomes [1]	IC50 [2] [nM]
NC1(C2CCN(c3nc(NC4CCS(=O)(=O)CC4)nc4c3cnn4-c3cccc(C(F)(F)F)c3)CC2)CC1 [Example I-62, 4-[4-(1-aminocyclopropyl)piperidin-1-yl]-N-(1,1-dioxidotetrahydro-2H-thiopyran-4-yl)-1-[3-(trifluoromethyl)phenyl]-1H-pyrazolo[3,4-d]pyrimidin-6-amine]	< 0.01 (stable) L/h/kg	100 (stable) %	2.57
CC(C)(O)C1CCN(c2nc(N[C@H]3CN4CCC3CC4)nc3c2cnn3-c2cccc(C(F)(F)F)c2)CC1 [Example I-64-1, 2-(1-{6-[(3R)-1-azabicyclo[2.2.2]octan-3-ylamino]-1-[3-(trifluoromethyl)phenyl]-1H-pyrazolo[3,4-d]pyrimidin-4-yl}piperidin-4-yl)propan-2-ol]	0.32 L/h/kg	76%	8.58
CC(C)(O)CC1CN(c2nc(N[C@H]3C[C@H](S(C)(=O)=O)C3)nc3c2cnn3-c2cccc(C(F)(F)F)c2)C1 [Example I-67, 2-methyl-1-[1-(6-{[trans-3-(methylsulfonyl)cyclobutyl]amino}-1-[3-(trifluoromethyl)-phenyl]-1H-pyrazolo[3,4-d]pyrimidin-4-yl)azetidin-3-yl]propan-2-ol]	0.24 L/h/kg	82%	5.33
CC(C)(O)CC1CN(c2nc(NC3CN(S(C)(=O)=O)C3)nc3c2cnn3-c2cccc(C(F)(F)F)c2)C1 [Example I-68, 2-methyl-1-[1-(6-{[1-(methylsulfonyl)azetidin-3-yl]amino}-1-[3-(trifluoromethyl)phenyl]-1H-pyrazolo[3,4-d]pyrimidin-4-yl)azetidin-3-yl]propan-2-ol]	0.02 L/h/kg	99%	23
O[C@H]1C[C@H](Nc2nc(N3CC(N4CCOCC4)C3)c3cnn(-c4cccc(C(F)(F)F)c4)c3n2)C1 [Example I-74, trans-3-({4-[3-(morpholin-4-yl)azetidin-1-yl]-1-[3-(trifluoromethyl)phenyl]-1H-pyrazolo-[3,4-d]pyrimidin-6-yl}amino)cyclobutanol]	0.11 L/h/kg	91%	4.83
CC1(N2CCOCC2)CN(c2nc(N[C@H]3C[C@@H](O)C3)nc3c2cnn3-c2cccc(C(F)(F)F)c2)C1 [Example I-76, cis-3-({4-[3-methyl-3-(morpholin-4-yl)azetidin-1-yl]-1-[3-(trifluoromethyl)phenyl]-1H-pyrazolo[3,4-d]pyrimidin-6-yl}amino)cyclobutanol]	0.30 L/h/kg	77%	9.61
C[C@]1(O)C[C@H](Nc2nc(N3CC(N4CCOCC4)C3)c3cnn(-c4cccc(C(F)(F)F)c4)c3n2)C1 [Example I-77, trans-1-methyl-3-({4-[3-(morpholin-4-yl)azetidin-1-yl]-1-[3-(trifluoromethyl)phenyl]-1H-pyrazolo[3,4-d]pyrimidin-6-yl}amino)cyclobutanol]	0.36 L/h/kg	72%	4.8
C[C@]1(O)C[C@@H](Nc2nc(N3CC(N4CCOCC4)C3)c3cnn(-c4cccc(C(F)(F)F)c4)c3n2)C1 [Example I-78, cis-1-methyl-3-({4-[3-(morpholin-4-yl)azetidin-1-yl]-1-[3-(trifluoromethyl)phenyl]-1H-pyrazolo[3,4-d]pyrimidin-6-yl}amino)cyclobutanol]	0.32 L/h/kg	76%	5.62
CC1(O)CCN(C2CN(c3nc(N[C@H]4C[C@H](O)C4)nc4c3cnn4-c3cccc(C(F)(F)F)c3)C2)CC1 [Example I-79, 1-(1-{6-[(trans-3-hydroxycyclobutyl)amino]-1-[3-(trifluoromethyl)phenyl]-1H-pyrazolo-[3,4-d]pyrimidin-4-yl}azetidin-3-yl)-4-methylpiperidin-4-ol]	0.41 L/h/kg	69%	7.75
CC(C)(O)C1CN(c2nc(N[C@H]3C[C@H](S(C)(=O)=O)C3)nc3c2cnn3-c2cccc(C(F)(F)F)c2)C1 [Example I-83, 2-[1-(6-{[trans-3-(methylsulfonyl)cyclobutyl]amino}-1-[3-(trifluoromethyl)phenyl]-1H-pyrazolo[3,4-d]pyrimidin-4-yl)azetidin-3-yl]propan-2-ol]	0.23 L/h/kg	83%	5.53
O[C@@H]1CN(c2nc(N[C@H]3C[C@@H](O)C3)nc3c2cnn3-c2cccc(C(F)(F)F)c2)C[C@H]1O [Example I-85, (3R,4R)-1-(6-{[(1s,3S)-3-hydroxycyclobutyl]amino}-1-[3-(trifluoromethyl)phenyl]-1H-pyrazolo[3,4-d]pyrimidin-4-yl)pyrrolidine-3,4-diol]	< 0.01 (stable) L/h/kg	100 (stable) %	2.41
CS(=O)(=O)[C@H]1C[C@H](Nc2nc(N3C[C@@H](O)[C@H](F)C3)c3cnn(-c4cccc(C(F)(F)F)c4)c3n2)C1 [Example I-86, (3R,4R)-4-fluoro-1-(6-{[(1r,3R)-3-(methylsulfonyl)cyclobutyl]amino}-1-[3-(trifluoromethyl)phenyl]-1H-pyrazolo[3,4-d]pyrimidin-4-yl)pyrrolidin-3-ol]	0.25 L/h/kg	81%	3.66
O[C@@H]1CN(c2nc(N[C@H]3C[C@H](O)C3)nc3c2cnn3-c2cccc(C(F)(F)F)c2)C[C@H]1F [Example I-88, (3R,4R)-4-fluoro-1-(6-{[(1r,3R)-3-hydroxycyclobutyl]amino}-1-[3-(trifluoromethyl)-phenyl]-1H-pyrazolo[3,4-d]pyrimidin-4-yl)pyrrolidin-3-ol]	0.57 L/h/kg	57%	3.94
O[C@@H]1CN(c2nc(N[C@H]3C[C@@H](O)C3)nc3c2cnn3-c2cccc(C(F)(F)F)c2)C[C@H]1F [Example I-89, (3R,4R)-4-fluoro-1-(6-{[(1s,3S)-3-hydroxycyclobutyl]amino}-1-[3-(trifluoromethyl)-phenyl]-1H-pyrazolo[3,4-d]pyrimidin-4-yl)pyrrolidin-3-ol]	0.37 L/h/kg	72%	4.72
CC(C)(O)C1CCN(c2nc(N[C@H]3C[C@](C)(O)C3)nc3c2cnn3-c2cccc(C(F)(F)F)c2)CC1 [Example I-91, trans-3-({4-[4-(2-hydroxypropan-2-yl)piperidin-1-yl]-1-[3-(trifluoromethyl)phenyl]-1H-pyrazolo[3,4-d]pyrimidin-6-yl}amino)-1-methylcyclobutanol]	0.04 L/h/kg	97%	6.53
CCC1(O)CN(c2nc(N[C@H]3C[C@H](S(C)(=O)=O)C3)nc3c2cnn3-c2cccc(C(F)(F)F)c2)C1 [Example I-92, 3-ethyl-1-(6-{[trans-3-(methylsulfonyl)cyclobutyl]amino}-1-[3-(trifluoromethyl)phenyl]-1H-pyrazolo[3,4-d]pyrimidin-4-yl)azetidin-3-ol]	0.36 L/h/kg	73%	5.61
CS(=O)(=O)[C@H]1C[C@H](Nc2nc(N3C[C@H](O)[C@@H](F)C3)c3cnn(-c4cccc(C(F)(F)F)c4)c3n2)C1 [Example I-94, (3S,4S)-4-fluoro-1-(6-{[(1r,3S)-3-(methylsulfonyl)cyclobutyl]amino}-1-[3-(trifluoromethyl)phenyl]-1H-pyrazolo[3,4-d]pyrimidin-4-yl)pyrrolidin-3-ol]	0.16 L/h/kg	88%	4.28
O[C@H]1CN(c2nc(N[C@H]3C[C@@]4(CCN4)C3)nc3c2cnn3-c2cccc(C(F)(F)F)c2)C[C@@H]1F [Example I-98, (3S,4S)-1-{6-[(4S,6s)-1-azaspiro[3.3]heptan-6-ylamino]-1-[3-(trifluoromethyl)phenyl]-1H-pyrazolo[3,4-d]pyrimidin-4-yl}-4-fluoropyrrolidin-3-ol]	< 0.01 (stable) L/h/kg	100 (stable) %	9.99
O[C@@H]1CN(c2nc(N[C@H]3C[C@H](O)C3)nc3c2cnn3-c2cccc(C(F)(F)F)c2)C[C@H]1O [Example I-101, (3R,4R)-1-(6-{[(1r,3R)-3-hydroxycyclobutyl]amino}-1-[3-(trifluoromethyl)phenyl]-1H-pyrazolo[3,4-d]pyrimidin-4-yl)pyrrolidine-3,4-diol]	0.35 L/h/kg	73%	2.81
